# Results: patent EP0391644B1, “Aryl-substituted rhodanine derivatives” (ELI LILLY AND COMPANY, priority 1989, dated 1990)
# Where “and” joins values, the source holds several entries; their conditions need not be identical. Equal entries are not always repeated.
# Key:
# [1] = tested on: adjuvant-induced arthritis; assay: Developing Adjuvant-Induced Arthritis Test in Rats; assay type: in vivo, male Lewis-Wistar rats; conditions: Rattus norvegicus, po, 720 h, AUC of uninjected paw volumes, Days 16 through 30, read-out: % Inhibition of Uninjected Paw Volume Inflammation; for inhibition in vivo at 50 mg/kg: 50 mg/kg P.O. x 29
# [2] = tested on: Collagen-Induced Arthritis; assay: Collagen-Induced Arthritis Assay; assay type: in vivo, inbred Lewis male rats; conditions: 50 mg/kg by oral gavage, 5 days per week; hindpaw volume
# Experimental: Type II collagen was isolated from bovine articular cartilage by the method of Strawich and Nimni [Biochemistry, 10, 3905 (1971)]. The collagen was dissolved in 0.1 M acetic acid and stored at -20°C. Type II collagen solution was diluted to 2 mg/ml concentration and emulsified thoroughly with an equal volume of incomplete Freund's adjuvant (ICFA). The emulsion containing approximately 0.5 mg of collagen was injected intradermally on day 0 to groups of 6 inbred Lewis male rats (Charles River Breeders; 170-200 g) at various sites in the dorsal area. The hindpaw volumes of each rat were measured and recorded three times a week throughout the test period to assess the inflammatory reaction. The test group animals received compounds under test as suspensions in carboxymethylcellulose vehicle, by oral gavage, 5 days per week (Monday-Friday), beginning on day 1. Control animals received vehicle without a test compound. At the end of the test (day 28 or 30), the blood of these animals was drawn by cardiac puncture and the serum anti-type II collagen antibody levels were estimated by passive hemaglutination technique, using glutaraldehyde treated sheep red cells, to which type II collagen is conjugated [Avrameas et al., Immunochemistry, 6, 67 (1969); Andriopoulos et al., Arth. Rheum., 19, 613 (1976)]. The cellular response or delayed-type hypersensitivity response to type II collagen was measured by the radiometric ear index assay [Kostiala, Immunology, 33, 561 (1977)]. In certain experiments, the bone damage occurring because of immunization with type II collagen and the effects of drugs were determined from the radiographs of the hind-paws of two or three representative animals from each group. Injections of ICFA without collagen II were employed in some rats as a negative control; these rats received only carboxymethycellulose vehicle during the test.
# The % inhibition was calculated according to the following formula: % inhibition = [1-(Vt - Vv)/(Vc - Vv)] X 100 [formula] where Vt is the hindpaw volume of a compound-treated animal (test group), Vc is the hindpaw volume of a non-compound-treated animal (carboxymethylcellulose vehicle only-the control group), and Vv is the hindpaw volume of a vehicle (carboxymethylcellulose) treated animal which received ICFA with no collagen II (negative control group).
# inflammation = assay: Carrageenin Assay; assay type: in vivo; conditions: Rattus norvegicus, po, carrageenin-injected hind paws of rats, read-out: Percent Inhibition; for inhibition in vivo at 50 mg/kg: 50 mg/kg orally by gavage
# Experimental: The compounds were evaluated for antiinflammatory activity in the test method described by C.A. Winter, Proc. Soc. Exp. Biol. Med., 111, 544 (1962). In this test, inflammation is created by injecting carrageenin into the hind paws of rats. Test compounds are administered prior to injection to determine percent inhibition of the subsequent inflammation in comparison with control animals.
# [3] = tested on: ischemia-induced brain damage in the hippocampal CA1 region; assay: Stroke model in rats; assay type: in vivo, Male Wistar rats; conditions: mean ± standard error, scale 0 = no damage to 3 = severe damage of CA1 layer
# Description: Strokes were produced in rats by occluding the four arteries that supply blood to the brain according to the following procedure. Male Wistar rats were anesthetized with Metofane and placed into a stereotaxic instrument. A longitudinal incision was made on the dorsal surface of the neck. The neck muscles were reflected to expose the dorsal surface of the spinal column. The two vertebral arteries were exposed where they pass through the first cervical vertebra. Both arteries were permanently occluded by the application of electrocautery. After coagulation of the vertebral arteries, the rat was removed from the stereotaxic instrument and the surgical wound was sutured. Two longitudinal incisions were then made on the ventral surface of the neck. The two common carotid arteries were exposed and dissected free from surrounding nerves and connective tissue. An atraumatic clasp, fabricated mainly from silicon rubber tubing, was placed around each carotid artery in a manner such that the vessel was not traumatized or occluded. The surgical wounds were then closed. The atraumatic clasps were designed in such a manner that they could be tightened to occlude the carotid arteries by pulling on a small silastic thread that was allowed to protrude from the wound. Circulation to the brain through the carotids could be restored by relieving the tension on the silastic threads. After the surgery, the rats were allowed to recover for 24 hours.
# On the day of testing, compounds were suspended in 2% acacia and were administered orally at various times before stroke induction. Strokes (cerebral ischemia) were induced by tightening the clasps around the carotids for a period of 30 minutes. During this time, rats in which strokes had successfully been produced lost the righting reflex and became unresponsive to stimuli. After 30 minutes of ischemia, tension on the clasps was removed and blood flow to the brain restored. Rats were again treated with compounds on the morning after the stroke. On the third day after the stroke the animals received an overdose of barbituate anesthetic, and the brain was perfused in situ with 10% neutral, buffered formalin. After perfusion with amounts of formalin adequate to fix the brain, the brains were removed and stored in 10% formalin until histological sections could be prepared.
# One of the areas of the brain that is most susceptible to ischemia induced damage both in the rat and the human is the CA1 pyramidal cell layer of the hippocampus. In animals that remain unresponsive for the 30 minute period of ischemia, the CA1 pyramidal cell layer is completely destroyed. This layer of cells was examined microscopically in histological sections prepared from the hippocampus. Brain damage was rated according to the following scale: 0 = no damage, completely intact cell layer 1 = mild damage, one-third of CA1 layer dead 2 = moderate damage, two-thirds of CA1 layer dead 3 = severe damage, complete destruction of CA1 layer
# Damage in 10-12 sections from each brain was assessed in order to obtain an accurate estimate of damage. An average damage score was calculated for each treatment group. Scores from treated groups were compared statistically with scores from control groups which received only the vehicle (2% acacia) that was used to suspend the compounds. The level of significance was determined using Student's "t-test".
# Dystrophic mice (dy/dy) = assay: Muscular Dystrophy Animal Model; assay type: in vivo
# Experimental: Dystrophic mice (dy/dy) were obtained from Jackson Laboratories after weaning (approximately 21 days) and treatment with the compounds shown in Table V was begun at the first sign of dystrophy. The compounds that were tested were administered in the diet and lifespan was measured during the course of treatment. The food and water sources were located in different parts of the cage requiring the animals to walk from the food source to the water source to survive.
# [4] = 100 mg/kg given orally as a suspension in 2% acacia
# [5] = 50 mg/kg given orally as a suspension in 2% acacia
# [6] = 0.03 percent by weight of compound in diet
SMILES,inhibition in vivo at 50 mg/kg [1] [%],"Damage Score [3, 4]",other results
"CC(C)(C)c1cc(C=C2SC(=S)NC2=O)cc(C(C)(C)C)c1O [Example 1, 5-{[3,5-bis(1,1-dimethylethyl)-4-hydroxyphenyl]-methylene}-2-thioxo-4-thiazolidinone]",41,,% inhibition [2]: 100% and 53%; inhibition in vivo at 30 mg/kg (inflammation; 30 mg/kg orally by gavage): 67%
"CC(C)(C)c1cc(C=C2C(=O)NC[S+]2[O-])cc(C(C)(C)C)c1O (stereo not shown) [Example 23, 5-{[3,5-bis(1,1-dimethylethyl)-4-hydroxyphenyl]methylene}-4-thiazolidinone, 1-oxide]",28,2.2 ± 0.4,
"CN(C)N1CSC(=Cc2cc(C(C)(C)C)c(O)c(C(C)(C)C)c2)C1=O [Example 21, 5-{[3,5-bis(1,1-dimethylethyl)-4-hydroxyphenyl]methylene}-3-dimethylamino-4-thiazolidinone]",81,,"Damage Score [3, 5]: 1.9 ± 0.3; Average Life Span (Dystrophic mice (dy/dy); [6]): 151 days"
"CCN1CSC(=Cc2cc(C(C)(C)C)c(O)c(C(C)(C)C)c2)C1=O [Example 14, 5-{[3,5-Bis(1,1-dimethylethyl)-4-hydroxyphenyl]methylene}-3-ethyl-4-thiazolidinone]",6,,inhibition in vivo at 50 mg/kg (inflammation): 43%
"CC(C)(C)c1cc(C=C2SCN(CC#N)C2=O)cc(C(C)(C)C)c1O [Example 38, 5-{[3,5-bis(1,1-dimethylethyl)-4-hydroxyphenyl]methylene}-4-oxo-3-thiazolidineacetonitrile]",1.8,,Damage Score ([3]; 200 mg/kg given orally as a suspension in 2% acacia): 1.6 ± 0.04
"COCCN1CSC(=Cc2cc(C(C)(C)C)c(O)c(C(C)(C)C)c2)C1=O [Example 7, 5-{[3,5-bis(1,1-dimethylethyl)-4-hydroxyphenyl]methylene}-3-(2-methoxyethyl)-4-thiazolidinone]",30,2.5 ± 0.2,
"CN(C)N1C[S+]([O-])C(=Cc2cc(C(C)(C)C)c(O)c(C(C)(C)C)c2)C1=O (stereo not shown) [Example 22, 5-{[3,5-bis(1,1-dimethylethyl)-4-hydroxyphenyl]methylene}-3-(dimethylamino)-4-thiazolidinone, 1-oxide]",1,2.3 ± 0.3,
"CC(C)(C)c1cc(C=C2SCN(CC(N)=O)C2=O)cc(C(C)(C)C)c1O [Example 5, 5-{[3,5-bis(1,1-dimethylethyl)-4-hydroxyphenyl]methylene}-4-oxo-3-thiazolidineacetamide]",7,1.8 ± 0.4 (p=0.05),
"CC(C)(C)c1cc(C=C2SCN(CCO)C2=O)cc(C(C)(C)C)c1O [Example 35, 5-{[3,5-bis(1,1-dimethylethyl)-4-hydroxyphenyl]methylene}-3-(2-hydroxyethyl)-4-thiazolidinone]",,0.9 ± 0.4 (p<0.001),Average Life Span (Dystrophic mice (dy/dy); 0.05 percent by weight of compound in diet): 107 days; inhibition in vivo at 75 mg/kg ([1]; 75 mg/kg P.O. x 29): 86%
"CCCCN1CSC(=Cc2cc(C(C)(C)C)c(O)c(C(C)(C)C)c2)C1=O [Example 16, 5-{[3,5-bis(1,1-dimethylethyl)-4-hydroxyphenyl]methylene}-3-butyl-4-thiazolidinone]",18,,inhibition in vivo at 50 mg/kg (inflammation): 40%
"Cc1cc(C=C2SCN(C)C2=O)cc(C(C)(C)C)c1O [Example 61, 5-{[3-(1,1-dimethylethyl)-4-hydroxy-5-methylphenyl]methylene}-3-methyl-4-thiazolidinone]",5.3,,"Damage Score [3, 5]: 1.7 ± 0.3 (p=0.03)"
"CNCCN1CSC(=Cc2cc(C(C)(C)C)c(O)c(C(C)(C)C)c2)C1=O [Example 28, 5-{[3,5-bis(1,1-dimethylethyl)-4-hydroxyphenyl]methylene}-3-[2-(methylamino)ethyl]-4-thiazolidinone]",72,,"Damage Score [3, 5]: 1.0 ± 0.4 (p=0.009)"
"CC(C)(C)c1cc(C=C2SCOC2=O)cc(C(C)(C)C)c1O [Example 17, 4-{[3,5-bis(1,1-dimethylethyl)-4-hydroxyphenyl]methylene}-1,3-oxothiolan-5-one]",61,,Average Life Span (Dystrophic mice (dy/dy); [6]): 112 days; inhibition in vivo at 50 mg/kg (inflammation): 18%
"CN1CSC(=Cc2cc(C(C)(C)C)c(O)c(C(C)(C)C)c2)C1=O [Example 10, 5-{[3,5-bis(1,1-dimethylethyl)-4-hydroxyphenyl]methylene}-3-methyl-4-thiazolidinone]",57,0.75 ± 0.26 (p<0.02),Average Life Span (Dystrophic mice (dy/dy); [6]): 93 days and 112 days and 90 days and 80 days and 110 days; Average Life Span (Dystrophic mice (dy/dy); 0.08 percent by weight of compound in diet): 45 days and 67 days; Average Life Span (Dystrophic mice (dy/dy); 0.3 percent by weight of compound in diet): 83 days
"CCCN1CSC(=Cc2cc(C(C)(C)C)c(O)c(C(C)(C)C)c2)C1=O [Example 15, 5-{[3,5-bis(1,1-dimethylethyl)-4-hydroxyphenyl]methylene}-3-propyl-4-thiazolidinone]",40,,inhibition in vivo at 50 mg/kg (inflammation): 42%
"CN1C[S+]([O-])C(=Cc2cc(C(C)(C)C)c(O)c(C(C)(C)C)c2)C1=O (stereo not shown) [Example 12, 5-{[3,5-bis(1,1-dimethylethyl)-4-hydroxyphenyl]methylene}-3-methyl-4-thiazolidinone, 1-oxide]",4.8,1.8 ± 0.4,
"CC(C)(C)c1cc(C=C2SC(=S)N(C3CC3)C2=O)cc(C(C)(C)C)c1O [Example 18, 5-{[3,5-bis(1,1-dimethylethyl)-4-hydroxyphenyl]methylene}-3-cyclopropyl-2-thioxo-4-thiazolidinone]",,,inhibition in vivo at 50 mg/kg (inflammation): 22%
